Experimental data published in patent publication US11591341B2 (ALIGOS THERAPEUTICS, INC., priority 2019, dated 2023).

Tested on: HBV
Assay: HBV-DNA Antiviral Assay Using HepG2.117 Cells (intracellular HBV DNA by qPCR)
Format: cell-based, hepatitis B virus (genotype D)
Conditions: Hepatitis B virus, HepG2.117
Method in brief: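 HepG2.117 cells (genotype D HBV, Tet-off) were induced by doxycycline withdrawal and treated for 3 days with 9 concentrations in 4-fold dilution, 2% DMSO final. Intracellular HBV DNA was measured by qPCR against a standard curve, with ATPlite viability read in parallel. EC50, EC90 and CC50 came from fits against the DMSO control.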

Row | Structure (SMILES) | EC50 [nM]
1 | C[C@@H](c1ccccc1)N1C[C@@H](O)Cn2c(c3n(c2=O)CCN(C(=O)c2ccc(Br)c(Cl)c2)C3)C1=O (stereo in doubt) [Example 237, (11RS)-2-(4-bromo-3-chloro-benzoyl)-11-hydroxy-13-[(1S)-1-phenylethyl]-4,7,9,13-tetrazatricyclo[7.5.0.0^2,7]tetradec-1-ene-8,14-dione] | 500 to 5000
2 | C[C@@H](c1ccccc1)N1C[C@H](O)Cn2c(c3n(c2=O)CCN(C(=O)c2ccc(Br)c(Cl)c2)C3)C1=O (stereo in doubt) [Example 238, (11SR)-4-(4-bromo-3-chloro-benzoyl)-11-hydroxy-13-[(1S)-1-phenylethyl]-4,7,9,13-tetrazatricyclo[7.5.0.0^2,7]tetradec-1-ene-8,14-dione] | 100 to 500
3 | COc1ccc([C@@H](C)NC(=O)c2c3n(c(=O)n2-c2ccc(OC(C)C)cc2)CCN(C(=O)c2ccc(Br)c(Cl)c2)C3)c(F)c1 (stereo in doubt) [Example 245, 7-(4-bromo-3-chloro-benzoyl)-2-(4-isopropoxyphenyl)-3-oxo-N-[rac-(1R)-1-(2-fluoro-4-methoxy-phenyl)ethyl]-6,8-dihydro-5H-imidazo[1,5-a]pyrazine-1-carboxamide] | < 100
4 | COc1ccc(-n2c(C(=O)N[C@@H](c3ccccc3)C(F)F)c3n(c2=O)CCN(C(=O)c2ccc(Br)c(Cl)c2)C3)cc1 (stereo in doubt) [Example 252, 7-(4-bromo-3-chloro-benzoyl)-2-(4-methoxyphenyl)-3-oxo-N-[rac-(1S)-2,2-difluoro-1-phenyl-ethyl]-6,8-dihydro-5H-imidazo[1,5-a]pyrazine-1-carboxamide] | 100 to 500
5 | COc1ccc(-n2c(C(=O)N[C@H](c3ccccc3)C(F)F)c3n(c2=O)CCN(C(=O)c2ccc(Br)c(Cl)c2)C3)cc1 (stereo in doubt) [Example 253, 7-(4-bromo-3-chloro-benzoyl)-2-(4-methoxyphenyl)-3-oxo-N-[rac-(1R)-2,2-difluoro-1-phenyl-ethyl]-6,8-dihydro-5H-imidazo[1,5-a]pyrazine-1-carboxamide] | 100 to 500
6 | C[C@@H](NC(=O)c1c2n(c(=O)n1-c1ccc(OCC(F)(F)F)cc1)CCN(C(=O)c1ccc(Br)c(Cl)c1)C2)c1ccccc1F (stereo in doubt) [Example 262, 7-(4-bromo-3-chloro-benzoyl)-3-oxo-N-[rac-(1R)-1-(2-fluorophenyl)ethyl]-2-[4-(2,2,2-trifluoroethoxy)phenyl]-6,8-dihydro-5H-imidazo[1,5-a]pyrazine-1-carboxamide] | 100 to 500
7 | C[C@H](NC(=O)c1c2n(c(=O)n1-c1ccc(OCC(F)(F)F)cc1)CCN(C(=O)c1ccc(Br)c(Cl)c1)C2)c1ccccc1F (stereo in doubt) [Example 264, 7-(4-bromo-3-chloro-benzoyl)-3-oxo-N-[rac-(1S)-1-(2-fluorophenyl)ethyl]-2-[4-(2,2,2-trifluoroethoxy)phenyl]-6,8-dihydro-5H-imidazo[1,5-a]pyrazine-1-carboxamide] | 500 to 5000
8 | C[C@@H](Oc1ccc(-n2c(C(=O)NCc3ccccc3)c3n(c2=O)CCN(C(=O)c2ccc(Br)c(Cl)c2)C3)cc1)C(F)(F)F (stereo in doubt) [Example 282, N-benzyl-7-(4-bromo-3-chloro-benozyl)-3-oxo-2-[4-[rac-(1R)-2,2,2-trifluoro-1-methyl-ethoxy]phenyl]-6,8-dihydro-5H-imidazo[1,5-a]pyrazine-1-carboxamide] | 500 to 5000
9 | C[C@H](Oc1ccc(-n2c(C(=O)NCc3ccccc3)c3n(c2=O)CCN(C(=O)c2ccc(Br)c(Cl)c2)C3)cc1)C(F)(F)F (stereo in doubt) [Example 283, N-benzyl-7-(4-bromo-3-chloro-benozyl)-3-oxo-2-[4-[rac-(1S)-2,2,2-trifluoro-1-methyl-ethoxy]phenyl]-6,8-dihydro-5H-imidazo[1,5-a]pyrazine-1-carboxamide] | 500 to 5000
10 | COc1ccc(CN2Cc3c4n(c(=O)n3C[C@H](O)C2)CCN(C(=O)c2ccc(Br)c(Cl)c2)C4)c(F)c1 (stereo in doubt) [Example 288, rac-(11R)-4-(4-bromo-3-chloro-benzoyl-13-[(2-fluoro-4-methoxy-phenyl)methyl]-11-hydroxy-4,7,9,13-tetrazatricyclo[7.5.0.0^2,7]tetradec-1-ene-8,14-dione] | 100 to 500
11 | COc1ccc(CN2Cc3c4n(c(=O)n3C[C@@H](O)C2)CCN(C(=O)c2ccc(Br)c(Cl)c2)C4)c(F)c1 (stereo in doubt) [Example 289, rac-(11S)-4-(4-bromo-3-chloro-benzoyl)-13-[(2-fluoro-4-methoxy-phenyl)methyl]-11-hydroxy-4,7,9,13-tetrazatricyclo[7,5.0.0^2,7]tetradec-1-ene-8,14-dione] | 100 to 500
12 | C[C@@H](NC(=O)c1c2n(c(=O)n1-c1ccc(OC3CC3)cc1)CCN(C(=O)c1ccc(Br)c(Cl)c1)C2)c1ccc(OC(F)(F)F)cc1F (stereo in doubt) [Example 290, 7-(4-bromo-3-chloro-benzoyl)-2-[4-(cyclopropoxy)phenyl]-3-oxo-N-[rac-(1R)-1-[2-fluoro-4-(trilfuoromethoxy)phenyl]ethyl]-6,8-dihydro-5H-imidazo[1,5-a]pyrazine-1-carboxamide] | 500 to 5000
13 | C[C@H](NC(=O)c1c2n(c(=O)n1-c1ccc(OC3CC3)cc1)CCN(C(=O)c1ccc(Br)c(Cl)c1)C2)c1ccc(OC(F)(F)F)cc1F (stereo in doubt) [Example 291, 7-(4-bromo-3-chloro-benzoyl)-2-[4-(cyclopropoxy)phenyl]-3-oxo-N-[rac-(1S)-1-[2-fluoro-4-(trifluoromethoxy)phenyl]ethyl]-6,8-dihydro-5H-imidazo[1,5-a]pyrazine-1-carboxamide] | 500 to 5000
14 | CO[C@@H]1CN(Cc2ccccc2)Cc2c3n(c(=O)n2C1)CCN(C(=O)c1ccc(Br)c(Cl)c1)C3 (stereo in doubt) [Example 309, rac-(11R)-13-benzyl-4-(4-bromo-3-choro-benzoyl)-11-methoxy-4,7,9,13-tetrazatricyclo[7.5.0.0^2,7]tetradec-1-ene-8,14-dione] | 500 to 5000
15 | CO[C@H]1CN(Cc2ccccc2)Cc2c3n(c(=O)n2C1)CCN(C(=O)c1ccc(Br)c(Cl)c1)C3 (stereo in doubt) [Example 310, rac-(11S)-13-benzyl-4-(4-bromo-3-chloro-benzoyl)-11-methoxy-4,7,9,13-tetrazatricyclo[7.5.0.0^2,7]tetradec-1-ene-8,14-dione] | 100 to 500
16 | C[C@H](NC(=O)c1c2n(c(=O)n1-c1ccc(OC3CC3)cc1)CCN(C(=O)c1ccc(Br)c(Cl)c1)C2)c1ccc(OCC(N)=O)cc1F (stereo in doubt) [Example 315, 7-(4-bromo-3-chloro-benzoyl)-2-[4-(cyclopropoxy)phenyl]-3-oxo-N-[rac-(1R)-1-[4-(2-amino-2-oxo-ethoxy)-2-fluoro-phenyl]ethyl]-6,8-dihydro-5H-imidazo[1,5-a]pyrazine-1-carboxamide] | 500 to 5000
17 | C[C@@H](NC(=O)c1c2n(c(=O)n1-c1ccc(OC3CC3)cc1)CCN(C(=O)c1ccc(Br)c(Cl)c1)C2)c1ccc(OCC(N)=O)cc1F (stereo in doubt) [Example 316, 7-(4-bromo-3-chloro-benzoyl)-2-[4-(cyclopropoxy)phenyl]-3-oxo-N-[rac-(1S)-1-[4-(2-amino-2-oxo-ethoxy)-2-fluoro-phenyl]ethyl]-6,8-dihydro-5H-imidazo[1,5-a]pyrazine-1-carboxamide] | < 100
18 | C[C@@H](NC(=O)c1c2n(c(=O)n1-c1ccc(OCC(F)(F)F)cc1)CCN(C(=O)c1ccc(Br)c(Cl)c1)C2)c1ccc(OC(F)F)cc1F (stereo in doubt) [Example 317, 7-(4-bromo-3-chloro-benzoyl)-3-oxo-N-[rac-(1R)-1-[4-(difluoromethoxy)-2-fluoro-phenyl]ethyl]-2-[4-(2,2,2-trifluoroethoxy)phenyl]-6,8-dihydro-5H-imidazo[1,5-a]pyrazine-1-carboxamide] | 500 to 5000
19 | C[C@H](NC(=O)c1c2n(c(=O)n1-c1ccc(OCC(F)(F)F)cc1)CCN(C(=O)c1ccc(Br)c(Cl)c1)C2)c1ccc(OC(F)F)cc1F (stereo in doubt) [Example 318, 7-(4-bromo-3-chloro-benzoyl)-3-oxo-N-[rac-(1S)-1-[4-(difluoromethoxy)-2-fluoro-phenyl]ethyl]-2-[4-(2,2,2-trifluoroethoxy)phenyl]-6,8-dihydro-5H-imidazo[1,5-a]pyrazine-1-carboxamide] | 100 to 500
20 | C[C@@H](NC(=O)c1c2n(c(=O)n1-c1ccc(OCC(F)(F)F)cc1)CCN(C(=O)c1ccc(Br)c(Cl)c1)C2)c1ccc(OCC(N)=O)cc1F (stereo in doubt) [Example 319, 7-(4-bromo-3-chloro-benzoyl)-3-oxo-N-[rac-(1R)-1-[4-(2-amino-2-oxo-ethoxy)-2-fluoro-phenyl]ethyl]-2-[4-(2,2,2-trifluoroethoxy)phenyl]-6,8-dihydro-5H-imidazo[1,5-a]pyrazine-1-carboxamide] | 500 to 5000
21 | C[C@H](NC(=O)c1c2n(c(=O)n1-c1ccc(OCC(F)(F)F)cc1)CCN(C(=O)c1ccc(Br)c(Cl)c1)C2)c1ccc(OCC(N)=O)cc1F (stereo in doubt) [Example 320, 7-(4-bromo-3-chloro-benzoyl)-3-oxo-N-[rac-(1S)-1-[4-(2-amino-2-oxo-ethoxy)-2-fluoro-phenyl]ethyl]-2-[4-(2,2,2-trifluoroethoxy)phenyl]-6,8-dihydro-5H-imidazo[1,5-a]pyrazine-1-carboxamide] | 100 to 500
22 | C[C@H](NC(=O)c1c2n(c(=O)n1-c1ccc(OCC(F)(F)F)cc1)CCN(C(=O)c1ccc(Br)c(Cl)c1)C2)c1ccc(OC(C)(C)C(N)=O)cc1F (stereo in doubt) [Example 336, 7-(4-bromo-3-chloro-benzoyl)-3-oxo-N-[rac-(1S)-1-[4-(2-amino-1,1-dimethyl-2-oxo-ethoxy)-2-fluoro-phenyl]ethyl]-2-[4-(2,2,2-trifluoroethoxy)phenyl]-6,8-dihydro-5H-imidazo[1,5-a]pyrazine-1-carboxamide] | 100 to 500
